Test results as given in PMC10816934, “Targeting the Melanocortin 1 Receptor in Melanoma: Biological Activity of α-MSH–Peptide Conjugates” (International Journal of Molecular Sciences, 2024).

Assays:
[1] = tested on: B16 murine melanoma cell line; assay: In vitro antiproliferative activity, MTT assay; format: cell-based, mouse; conditions: ratio of IC50 values of free Dau and conjugate
Source text: (§1) The following cell cultures were used for the biological evaluation of the synthetic melanoma-specific peptide–drug (Dau–α-MSH) conjugates: A2058 (human skin melanoma, CVCL_1059), M24 (human metastatic skin melanoma, CVCL_D032), OCM-1 (human ocular choroidal melanoma-1, CVCL_6934), OCM-3 (human ocular choroidal melanoma-3, CVCL_6937), WM983A (human metastatic skin melanoma, CVCL_6808), WM983B (human metastatic skin melanoma CVCL_6809), SK-MEL-202 (human skin melanoma, ATCC HTB-68) and B16 (mouse melanoma, ATCC: CRL-6475). Cells were maintained in RPMI-1640 (Lonza, Basel, Switzerland), supplied with 10% FBS (fetal bovine serum; BioSera, Nuaille, France), L-glutamine, and 1% penicillin–streptomycin (from 10 000 units penicillin and 10 mg streptomycin/mL, Gibco, Dublin, Ireland) at 37 °C in a 5% CO2 atmosphere. No mycoplasma contamination was detected in the cell cultures.
(§2) The in vitro cytostatic effect of Dau–α-MSH conjugates was determined by two different assays. The full-length Dau–α-MSH conjugates were investigated by MTT assay using human and murine melanoma cell cultures. For determination of the cytostatic effect of these conjugates, the cells were treated with the compounds at 0.8–100 μM concentration range dissolved in the corresponding serum-free media for 24 h. After incubation, the treating solutions were removed, the cells were washed two times with serum-free medium and cultured for 48 h in the appropriate serum-containing cell culture medium. On the fourth day, the MTT assay was carried out to determine the IC50 values of the compounds. IC50 is the concentration that inhibits cell proliferation by 50%. Nonlinear regression analysis was performed with Prism 6 software (GraphPad, La Jolla, CA, USA) to generate sigmoidal dose–response curves, from which the 50% inhibitory concentration (IC50) values of the compounds were calculated and presented as micromolar (µM) units. The experiments were done in triplicate, and each experiment was repeated twice.

[2] = tested on: A2058 human melanoma cell line; assay: In vitro antiproliferative activity, MTT assay; format: cell-based; conditions: ratio of IC50 values of free Dau and conjugate
Source text: as §1, §2

[3] = tested on: M24 human melanoma cell line; assay: In vitro antiproliferative activity, MTT assay; format: cell-based; conditions: ratio of IC50 values of free Dau and conjugate
Source text: as §1, §2

[4] = tested on: WM983B human melanoma cell line; assay: In vitro antiproliferative activity, MTT assay; format: cell-based; conditions: ratio of IC50 values of free Dau and conjugate
Source text: as §1, §2

A2058 cells = assay: In vitro cytostatic effect, PrestoBlue assay; format: cell-based, human; conditions: A2058 (reference cell line); TI = (IC50neg/IC50pos conjugate)/(IC50neg/IC50pos free drug)
Source text: as §1
(§3) The in vitro cytostatic effect of the Dau–α-MSH conjugate with optimized sequence (Conj4) was investigated and compared with Conj2 by PrestoBlue assay using human melanoma cell cultures with different origins. For determination of the cytostatic effect of the conjugates, the cells were treated with the compounds at 0.003–200 μM concentration range dissolved in the corresponding serum-free medium for 72 h. After the treatment, the PrestoBlue assay (purchased from Invitrogen (Waltham, MA, USA) was carried out to determine the IC50 values of the compounds. Based on the IC50 values, we also determined the targeting index (TI) of the conjugates using the following equation [58]: TI=IC50neg/IC50posconjugate/IC50neg/IC50posfree drug

OCM-1 cells = assay: In vitro cytostatic effect, PrestoBlue assay; format: cell-based, human; conditions: OCM-1 versus A2058; TI = (IC50neg/IC50pos conjugate)/(IC50neg/IC50pos free drug)
Source text: as §1, §3

OCM-3 cells = assay: In vitro cytostatic effect, PrestoBlue assay; format: cell-based, human; conditions: OCM-3 versus A2058; TI = (IC50neg/IC50pos conjugate)/(IC50neg/IC50pos free drug)
Source text: as §1, §3

SK-MEL-202 cells = assay: In vitro cytostatic effect, PrestoBlue assay; format: cell-based, human; conditions: SK-MEL-202 versus A2058; TI = (IC50neg/IC50pos conjugate)/(IC50neg/IC50pos free drug)
Source text: as §1, §3

WM983A cells = assay: In vitro cytostatic effect, PrestoBlue assay; format: cell-based, human; conditions: WM983A versus A2058; TI = (IC50neg/IC50pos conjugate)/(IC50neg/IC50pos free drug)
Source text: as §1, §3

WM983B cells = assay: In vitro cytostatic effect, PrestoBlue assay; format: cell-based, human; conditions: WM983B versus A2058; TI = (IC50neg/IC50pos conjugate)/(IC50neg/IC50pos free drug)
Source text: as §1, §3

healthy male BALB/c mice = assay: In vivo acute toxicity study on healthy mice; set-up: species or system mouse
Experimental: To determine toxicity of conjugates on healthy animals, in vivo acute toxicity study of Dau, Conj2 and Conj4 was performed. In the first experiment, adult BALB/c male mice (29–31 g) were exposed by one injection of the conjugate at the start of experiment, by intraperitoneal (i.p.) administration. A dose of 25 mg Dau content/kg was used, in a volume of 0.1 mL per mice (3 mice per condition). In the second in vivo experiment, NOD-SCID mice were exposed by four injections of the conjugates at the start of experiment, by intraperitoneal (i.p.) administration. Doses of 5, 10 and 15 mg Dau content/kg were used for the toxicity assay, at a volume of 0.1 mL per mice (3 mice per condition). The animals were kept under the conditions as described above.

[5] = tested on: OCM-1 human uveal melanoma tumor in male NOD-SCID mice; assay: In vivo tumor growth inhibition, OCM-1 xenograft; set-up: species or system mouse
Experimental: In the next experiment, the murine xenograft melanoma model establishment studies were performed using 8–12-week-old male NOD-SCID mice. For selection of the most suitable tumor model, three cell lines were then inoculated subcutaneously, OCM-1, SK-MEL-202, and WM983A. Cells were injected in a 0.1 mL RPMI-1640 basic medium in a concentration of 1.5·× 10^6 cells/mL, and the tumor growth and weight of mice were monitored 2–3 times per week. Subsequently, the antitumor effects of the Dau–α-MSH conjugates were determined in a mouse xenograft melanoma model selected as described above. Once the tumor volume reached 60 mm^3, mice were randomized and assigned to different groups for each treatment: 0.9% saline as a control, free daunomycin, Conj2 and Conj4. Treatments were injected intraperitoneally every fifth day, three times in total (daunomycin dosage of 5 mg/kg in case of Conj2, 10 mg/kg for Conj4, respectively, which was determined based on the toxicity tests, and 1 mg/kg were used for free drug–MTD). The weight and tumor size of mice were monitored during the whole experiment. On Day 33, mice were euthanized, and the primary tumor, heart, lung, liver, and spleen were harvested and stored in 4% formalin (Molar Chemicals, Halásztelek, Hungary). Liver weight was measured for the calculation of the toxicity of conjugates and daunomycin.

[6] = tested on: subcutaneous B16 murine melanoma in C57BL/6 male mice; assay: In vivo antitumor effect, subcutaneous B16 melanoma allograft; conditions: conjugates 10 mg Dau content/kg
Experimental: In the first experiment, B16 murine melanoma cells were subcutaneously (s.c.) injected into side of the latero-abdominal region of 35 C57BL/6 male mice (20–28 g), which murine strain is syngeneic for the B16 melanoma tumor cell line [59, 60], 6.5 ×·10^5 cells in a volume of 200 µL M199 medium was inoculated per animal. Mice were randomized in a stratified procedure considering two main factors. The primary factor was to obtain groups with the most equal tumor sizes, the secondary factor was to have groups in which the weight of mice are the most equal. The treatment started 9 days after cell inoculation when average tumor volume was 30 mm^3. Compounds were dissolved in saline solution (Teva, Debrecen, Hungary), and administered via i.p. injection in a volume of 0.1 mL per 10 g of bodyweight. […] Animal weight and tumor volumes were measured initially when the treatment started and at periodic intervals following treatment. A digital caliper was used to measure the longest (a) and the shortest diameter (b) of a given tumor. The tumor volume was calculated using the formula V = ab^2 × π/6, whereby a and b represent the measured parameters (length and width). Termination of the experiment was 20 days after cell inoculation, i.e., 12 days after treatment started, since the average volume of the tumors in the control group reached over 1800 mm^3. The mice from all groups were sacrificed by cervical dislocation after which their tumors were harvested and weighed for antitumor effect assessment. Antitumor effect of treatments was evaluated measuring the tumor volume and calculating the percentage of how much the tumor volume grew in comparison to the starting tumor volume which was set arbitrarily for all tumors as 100% at the start of treatment.

[7] = change compared to control group, minus = inhibition, free Dau 1 mg/kg

In the case of CCCC[C@H](NC(=O)[C@H](CO)NC(=O)[C@H](Cc1ccc(O)cc1)NC(=O)[C@H](CO)NC(C)=O)C(=O)N[C@@H](CCC(=O)O)C(=O)N[C@@H](Cc1c[nH]cn1)C(=O)N[C@@H](Cc1ccccc1)C(=O)N[C@@H](CCCNC(=N)N)C(=O)N[C@@H](Cc1c[nH]c2ccccc12)C(=O)NCC(=O)N[C@@H](CCCCNC(=O)CON=C(C)[C@]1(O)Cc2c(O)c3c(c(O)c2[C@@H](O[C@H]2C[C@H](N)[C@H](O)[C@H](C)O2)C1)C(=O)c1c(OC)cccc1C3=O)C(=O)N1CCC[C@H]1C(=O)N[C@H](C(N)=O)C(C)C [Conj2, Ac-SYSNleEHFRWGK(Dau=Aoa)PV-NH2], the “Relative Potency” value [1] is reported as 0.0093, the “Relative Potency” value [2] is reported as 0.0125 and the “Relative Potency” value [3] is reported as 0.0103. The “Relative Potency” value [4] was 0.0063, the “Targeting Index (TI)” value (A2058 cells) was 1.00 and the “Targeting Index (TI)” value (OCM-1 cells) was 2.30. For the same molecule, the “Targeting Index (TI)” value (OCM-3 cells) was 1.85, the “Targeting Index (TI)” value (SK-MEL-202 cells) was 2.74 and the “Targeting Index (TI)” value (WM983A cells) was 1.90. For the same molecule, the “Targeting Index (TI)” value (WM983B cells) was 2.61, the “Changes in bodyweight, liver mass, general appearance and behavior” value (healthy male BALB/c mice; after 14 days, one i.p. injection 25 mg Dau content/kg, BALB/c male mice) was “no significant changes” and the Acute toxicity (healthy male BALB/c mice; one i.p. injection, up to 25 mg Dau content/kg, healthy BALB/c male mice, 3 mice, 14 days) was “does not show acute toxicity”. For the same molecule, the “Growth of the tumor reduced to % of the control size” value ([5]; Day 33, 5 mg/kg Dau content i.p., three treatments (days 15, 19, 23), p: 0.0056) was 55%, the “Normalized liver weight, value line 1” value ([5]; Table S2, single animal, line 1) was 3.77% and the “Normalized liver weight, value line 2” value ([5]; Table S2, single animal, line 2) was 5.10%. The “Normalized liver weight, value line 3” value ([5]; Table S2, single animal, line 3) was 4.35%, the “Normalized liver weight, value line 4” value ([5]; Table S2, single animal, line 4) was 4.14% and the “Normalized liver weight, value line 5” value ([5]; Table S2, single animal, line 5) was 4.73%. The “Normalized liver weight, value line 6” value ([5]; Table S2, single animal, line 6) was 4.15%, the “Normalized liver weight, value line 7” value ([5]; Table S2, single animal, line 7) was 4.90% and the “Normalized liver weight, line printed as "ave"” value ([5]; Table S2, value line 8) was 4.55%. The “Tumor growth inhibition based on tumor weight, in comparison to the control group” value ([6]; after termination (day 20), free Dau 1 mg/kg i.p.) was 38.6%, the “Tumor weigh in % (Table S1)” value ([6]; change compared to control group, minus = decrease, free Dau 1 mg/kg) was -38.6% and the “Tumor volume in % (Table S1)” value [6, 7] was -75.4%. For the same molecule, the “Tumor volume in mm3 (Table S1)” value [6, 7] was -37.8%.
